Target: T1, papain (Carica papaya, UniProt P00784)
T1 sequence (P00784 134-345): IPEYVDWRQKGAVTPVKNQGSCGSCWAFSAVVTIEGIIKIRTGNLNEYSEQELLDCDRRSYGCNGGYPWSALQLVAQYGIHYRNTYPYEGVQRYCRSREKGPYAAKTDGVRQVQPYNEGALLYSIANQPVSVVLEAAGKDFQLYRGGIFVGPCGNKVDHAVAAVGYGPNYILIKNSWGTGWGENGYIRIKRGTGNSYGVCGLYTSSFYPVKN
Experiment: Papain digestion 2 of linker-payload compounds, in vitro payload release
Assay type: biochemical
Conditions: for % Payload Released / By-Products: GGFG*G (payload-CH2NHC(O)CH2NH2, cleavage between two glycines of linker) / By-Products: uncleaved: 10 μM compound, papain 2 molar equivalents, 2 hours; for % Payload Released: PBS pH 7.4, 5% DMA, room temperature; for By-Products: GGFG*G (payload-CH2NHC(O)CH2NH2, cleavage between two glycines of linker) / By-Products: uncleaved: PBS pH 7.4, room temperature; for yield of desired payload released by papain (in words): papain treatment
Protocol: 10 μM of either Compound (XL), Compound (XI), Compound (XIV), Compound (XV), Compound (XII), or Compound (XVII) (PBS pH 7.4, 5% DMA co-solvent) was incubated with papain (2 molar equivalents) at room temperature for 2 hours with gentle shaking. The digests were extracted with 5 volumes of ice-cold acetonitrile and dried down, followed by reconstitution in 95:5:0.1 water:acetonitrile:formic acid. The samples were submitted for LC-MS analysis (Thermo Exploris 240) and using the appropriate reference standards, the released payload and/or incompletely cleaved linker byproducts were identified and quantified.

Structure (SMILES) | % Payload Released [%] | By-Products: GGFG*G (payload-CH2NHC(O)CH2NH2, cleavage between two glycines of linker) | By-Products: uncleaved | yield of desired payload released by papain (in words)
O=C(CCCCCN1C(=O)C=CC1=O)NCC(=O)NCC(=O)N[C@@H](Cc1ccccc1)C(=O)NCC(=O)NCC(=O)NCN1C(=O)CCC(N2Cc3c(C#CCCCNC(=O)c4ccc(NC(=O)[C@@H]5NC6(CCCCC6)[C@@]6(C(=O)Nc7cc(Cl)ccc76)[C@H]5c5cccc(Cl)c5F)cc4)cccc3C2=O)C1=O (stereo partly drawn) [Compound (XII), (3′R,4'S,5′R)-6″-chloro-4′-(3-chloro-2-fluorophenyl)-N-(4-{[5-(2-{1-[(2-{2-[(2S)-2-(2-{2-[6-(2,5-dioxopyrrol-1-yl)hexanamido]acetamido}acetamido)-3-phenylpropanamido]acetamido}acetamido)methyl]-2,6-dioxopiperidin-3-yl}-1-oxo-3H-isoindol-4-yl)pent-4-yn-1-yl]carbamoyl}phenyl)-2″-oxo-1″H-dispiro[cyclohexane-1,2′-pyrrolidine-3′,3″-indole]-5′-carboxamide] | 9.4 | 57.0%, | uncleaved 33.6% | lower yields of the desired payload
Cc1sc2c(c1C)C(c1ccc(Cl)cc1)=N[C@@H](CC(=O)NCCCCCC(=O)NCc1cccc3c1C(=O)N(C1CCC(=O)N(CNC(=O)CNC(=O)CNC(=O)[C@H](Cc4ccccc4)NC(=O)CNC(=O)CNC(=O)CCCCCN4C(=O)C=CC4=O)C1=O)C3=O)c1nnc(C)n1-2 (stereo partly drawn) [Compound (XIV), 6-{2-[(9S)-7-(4-chlorophenyl)-4,5,13-trimethyl-3-thia-1,8,11,12-tetraazatricyclo[8.3.0.0^{2,6}]trideca-2(6),4,7,10,12-pentaen-9-yl]acetamido}-N-[(2-{1-[(2-{2-[(2S)-2-(2-{2-[6-(2,5-dioxopyrrol-1-yl)hexanamido]acetamido}acetamido)-3-phenylpropanamido]acetamido}acetamido)methyl]-2,6-dioxopiperidin-3-yl}-1,3-dioxoisoindol-4-yl)methyl]hexanamide] | 11.6 | 40.5%, | uncleaved 47.9% | lower yields of the desired payload
Cn1cc(-c2cc(NC(=O)CCCCC(=O)NCCCCNc3cccc4c3C(=O)N(C3CCC(=O)N(CNC(=O)CNC(=O)[C@H](Cc5ccccc5)NC(=O)CNC(=O)CNC(=O)CCCCCN5C(=O)C=CC5=O)C3=O)C4=O)ccc2Oc2ccc(F)cc2F)c2cc[nH]c2c1=O.O=C(O)C(F)(F)F (stereo partly drawn) [Compound (XL), N′-[4-(2,4-difluorophenoxy)-3-{6-methyl-7-oxo-1H-pyrrolo[2,3-c]pyridin-4-yl}phenyl]-N-[4-({2-[1-({2-[(2S)-2-(2-{2-[6-(2,5-dioxopyrrol-1-yl)hexanamido]acetamido}acetamido)-3-phenylpropanamido]acetamido}methyl)-2,6-dioxopiperidin-3-yl]-1,3-dioxoisoindol-4-yl}amino)butyl]hexanediamide; trifluoroacetic acid] | 90.2 | – | – | excellent yield
N#Cc1ccc(O[C@H]2CC[C@H](NC(=O)c3ccc(N4CCC(CN5CCN(c6cc7c(cc6F)C(=O)N(C6CCC(=O)N(CNC(=O)CNC(=O)CNC(=O)[C@H](Cc8ccccc8)NC(=O)CNC(=O)CNC(=O)CCCCCN8C(=O)C=CC8=O)C6=O)C7=O)CC5)CC4)nn3)CC2)cc1Cl (stereo partly drawn) [Compound (XV), 6-(4-{[4-(2-{1-[(2-{2-[(2S)-2-(2-{2-[6-(2,5-dioxopyrrol-1-yl)hexanamido]acetamido}acetamido)-3-phenylpropanamido]acetamido}acetamido)methyl]-2,6-dioxopiperidin-3-yl}-6-fluoro-1,3-dioxoisoindol-5-yl)piperazin-1-yl]methyl}piperidin-1-yl)-N-[(1r,4r)-4-(3-chloro-4-cyanophenoxy)cyclohexyl]pyridazine-3-carboxamide] | 5.8 | 78.3%, | uncleaved 15.8% | lower yields of the desired payload

From patent US20250144230A1, “LINKERS FOR USE IN ANTIBODY DRUG CONJUGATES” (Orum Therapeutics, Inc., priority 2021, published 2025)
